# Assay results: publication PMC10385824, “Antiproliferative and Tubulin-Destabilising Effects of 3-(Prop-1-en-2-yl)azetidin-2-Ones and Related Compounds in MCF-7 and MDA-MB-231 Breast Cancer Cells” (Pharmaceuticals, 2023)
# System: colchicine-binding site of β-tubulin (Cys239, Cys354) in MCF-7 cells
# Experiment: Colchicine-binding site assay (EBI crosslinking, Western blot)
# Settings: 10 μM, 2 h, then EBI
# Description: MCF-7 cells were seeded at density of 5 × 10^4 cells/well in 6-well plates and incubated overnight. […] Samples were separated by SDS-PAGE, transferred to polyvinylidene difluoride membranes and examined with β-tubulin antibodies (Sigma-Aldrich, Milwaulkee, WI, USA) [99].
# Cells were harvested, lysed and then analysed using sedimentation followed by Western blotting to identify β-tubulin and β-tubulin-EBI adduct.
structure (smiles),measurement,value
"C=C(C)C1C(=O)N(c2cc(OC)c(OC)c(OC)c2)C1c1ccc(OC)c(O)c1 (stereo not shown) [9q, 4-(3-Hydroxy-4-methoxyphenyl)-1-(3,4,5-trimethoxyphenyl)-3-(prop-1-en-2-yl)azetidin-2-one]",formation of β-tubulin-EBI adduct,formation of the EBI adduct was prevented
